Measured values: US11331369B2, “Endoparasitic depsipeptides” (Zoetis Services LLC, priority 2017, dated 2022)

How the values were obtained:
Type in all cases: cell-based
[1] = tested on: microfilariae of Dirofilaria immitis; assay: Dirofilaria immitis, Microfilaria (DiMF) In vitro Assay; conditions: 72 h, read-out: DiMF Minimum Effective Dose (MED), approximately 72 hours incubation, microfilariae assessed for survival or paralysis
[2] = tested on: third stage larvae of Haemonchus contortus; assay: Haemonchus contortus L3 (HcL3) Assay; conditions: 96 h, read-out: HcL3 Minimum Effective Dose (MED)
[3] = tested on: 4th stage larvae (L4) of Dirofilaria immitis; assay: Dirofilaria immitis, L4 Stage (DiL4) In Vitro Assay; conditions: Dirofilaria immitis, 72 h, read-out: DiL4 Minimum Effective Dose (MED), approximately 72 hours incubation; L4 larvae assessed for survival or paralysis

CC(C)C[C@H]1C(=O)O[C@H](Cc2ccc(Cn3cc(Br)cn3)cc2)C(=O)N(C)[C@@H](CC(C)C)C(=O)O[C@H](C)C(=O)N(C)[C@@H](CC(C)C)C(=O)O[C@H](Cc2ccc(Cn3cccn3)cc2)C(=O)N(C)[C@@H](CC(C)C)C(=O)O[C@H](C)C(=O)N1C [Example 1a-16, (3S,6R,9S,12R,15S,18R,21S,24R)-6-(4-((1H-pyrazol-1-yl)methyl)benzyl)-18-(4-((4-bromo-1H-pyrazol-1-yl)methyl)benzyl)-3,9,15,21-tetraisobutyl-4,10,12,16,22,24-hexamethyl-1,7,13,19-tetraoxa-4,10,16,22-tetraazacyclotetracosan-2,5,8,11,14,17,20,23-octaone]
minimal effective concentration [1]: 0.001 to 0.01 µM
minimal effective concentration [2]: 1 to 10 µM
minimal effective concentration [3]: 0.0001 to 0.001 µM

Cc1cnn(Cc2ccc(C[C@H]3OC(=O)[C@H](CC(C)C)N(C)C(=O)[C@@H](C)OC(=O)[C@H](CC(C)C)N(C)C(=O)[C@@H](Cc4ccc(Cn5cc(I)cn5)cc4)OC(=O)[C@H](CC(C)C)N(C)C(=O)[C@@H](C)OC(=O)[C@H](CC(C)C)N(C)C3=O)cc2)c1 [Example 1a-20, (3S,6R,9S,12R,15S,18R,21S,24R)-6-(4-((4-iodo-1H-pyrazol-1-yl)methyl)benzyl)-3,9,15,21-tetraisobutyl-4,10,12,16,22,24-hexamethyl-18-(4-((4-methyl-1H-pyrazol-1-yl)methyl)benzyl)-1,7,13,19-tetraoxa-4,10,16,22-tetraazacyclotetracosan-2,5,8,11,14,17,20,23-octaone]
minimal effective concentration [1]: 0.001 to 0.01 µM
minimal effective concentration [2]: 1 to 10 µM
minimal effective concentration [3]: 0.0001 to 0.001 µM

CC(C)C[C@H]1C(=O)O[C@H](Cc2ccc(Cn3cc(I)cn3)cc2)C(=O)N(C)[C@@H](CC(C)C)C(=O)O[C@H](C)C(=O)N(C)[C@@H](CC(C)C)C(=O)O[C@H](Cc2ccc(Cn3cccn3)cc2)C(=O)N(C)[C@@H](CC(C)C)C(=O)O[C@H](C)C(=O)N1C [Example 1a-21, (3S,6R,9S,12R,15S,18R,21S,24R)-6-(4-((1H-pyrazol-1-yl)methyl)benzyl)-18-(4-((4-iodo-1H-pyrazol-1-yl)methyl)benzyl)-3,9,15,21-tetraisobutyl-4,10,12,16,22,24-hexamethyl-1,7,13,19-tetraoxa-4,10,16,22-tetraazacyclotetracosan-2,5,8,11,14,17,20,23-octaone]
minimal effective concentration [1]: 0.001 to 0.01 µM
minimal effective concentration [2]: 1 to 10 µM
minimal effective concentration [3]: 0.0001 to 0.001 µM

CC(C)C[C@H]1C(=O)O[C@H](Cc2ccc(Cn3nccc3C(F)(F)F)cc2)C(=O)N(C)[C@@H](CC(C)C)C(=O)O[C@H](C)C(=O)N(C)[C@@H](CC(C)C)C(=O)O[C@H](Cc2ccc(Cn3ccc(C(F)(F)F)n3)cc2)C(=O)N(C)[C@@H](CC(C)C)C(=O)O[C@H](C)C(=O)N1C [Example 1a-26, (3S,6R,9S,12R,15S,18R,21S,24R)-3,9,15,21-tetraisobutyl-4,6,10,16,18,22-hexamethyl-12-(4-((3-(trifluoromethyl)-1H-pyrazol-1-yl)methyl)benzyl)-24-(4-((5-(trifluoromethyl)-1H-pyrazol-1-yl)methyl)benzyl)-1,7,13,19-tetraoxa-4,10,16,22-tetraazacyclotetracosan-2,5,8,11,14,17,20,23-octaone]
minimal effective concentration [1]: 0.01 to 0.1 µM
minimal effective concentration [2]: 1 to 10 µM
minimal effective concentration [3]: 0.0001 to 0.001 µM

CC(C)C[C@H]1C(=O)O[C@H](Cc2ccc(Cn3ccnc3Cl)cc2)C(=O)N(C)[C@@H](CC(C)C)C(=O)O[C@H](C)C(=O)N(C)[C@@H](CC(C)C)C(=O)O[C@H](Cc2ccccc2)C(=O)N(C)[C@@H](CC(C)C)C(=O)O[C@H](C)C(=O)N1C [Example 8-9, (3S,6R,9S,12R,15S,18R,21S,24R)-6-benzyl-18-(4-((2-chloro-1H-imidazol-1-yl)methyl)benzyl)-3,9,15,21-tetraisobutyl-4,10,12,16,22,24-hexamethyl-1,7,13,19-tetraoxa-4,10,16,22-tetraazacyclotetracosan-2,5,8,11,14,17,20,23-octaone]
minimal effective concentration [2]: 1 to 10 µM
minimal effective concentration [3]: 0.0001 to 0.001 µM

CC(C)C[C@H]1C(=O)O[C@H](Cc2ccc(Cn3c(C#N)ccc3C#N)cc2)C(=O)N(C)[C@@H](CC(C)C)C(=O)O[C@H](C)C(=O)N(C)[C@@H](CC(C)C)C(=O)O[C@H](Cc2ccc(Cn3c(C#N)ccc3C#N)cc2)C(=O)N(C)[C@@H](CC(C)C)C(=O)O[C@H](C)C(=O)N1C [Example 9-12, 1,1′-(((((2R,5S,8R,11S,14R,17S,20R,23S)-5,11,17,23-tetraisobutyl-4,8,10,16,20,22-hexamethyl-3,6,9,12,15,18,21,24-octaoxo-1,7,13,19-tetraoxa-4,10,16,22-tetraazacyclotetracosane-2,14-diyl)bis(methylene))bis(4,1-phenylene))bis(methylene))bis(1H-pyrrole-2,5-dicarbonitrile)]
minimal effective concentration [2]: ≤ 1 µM
minimal effective concentration [3]: ≤ 0.0001 µM

CC(C)C[C@H]1C(=O)O[C@H](Cc2ccc(Cn3cccc3C#N)cc2)C(=O)N(C)[C@@H](CC(C)C)C(=O)O[C@H](C)C(=O)N(C)[C@@H](CC(C)C)C(=O)O[C@H](Cc2ccc(Cn3cccc3C#N)cc2)C(=O)N(C)[C@@H](CC(C)C)C(=O)O[C@H](C)C(=O)N1C [Example 9-16, 1-[[4-[[(2R,5S,8R,11S,14R,17S,20R,23S)-14-[[4-[(2-cyanopyrrol-1-yl)methyl]phenyl]methyl]-5,11,17,23-tetraisobutyl-4,8,10,16,20,22-hexamethyl-3,6,9,12,15,18,21,24-octaoxo-1,7,13,19-tetraoxa-4,10,16,22-tetrazacyclotetracos-2-yl]methyl]phenyl]methyl]pyrrole-2-carbonitrile]
minimal effective concentration [2]: ≤ 1 µM
minimal effective concentration [3]: ≤ 0.0001 µM

CC(C)C[C@H]1C(=O)O[C@H](Cc2ccc(Cn3cccc3C(N)=O)cc2)C(=O)N(C)[C@@H](CC(C)C)C(=O)O[C@H](C)C(=O)N(C)[C@@H](CC(C)C)C(=O)O[C@H](Cc2ccc(Cn3cccc3C(N)=O)cc2)C(=O)N(C)[C@@H](CC(C)C)C(=O)O[C@H](C)C(=O)N1C [Example 9-32, 1-[[4-[[(2R,5S,8R,11 S,14R,17S,20R,23S)-14-[[4-[(2-carbamoylpyrrol-1-yl)methyl]phenyl]methyl]-5,11,17,23-tetraisobutyl-4,8,10,16,20,22-hexamethyl-3,6,9,12,15,18,21,24-octaoxo-1,7,13,19-tetraoxa-4,10,16,22-tetrazacyclotetracos-2-yl]methyl]phenyl]methyl]pyrrole-2-carboxamide]
minimal effective concentration [2]: ≤ 1 µM
minimal effective concentration [3]: 0.0001 to 0.001 µM

CCc1ncnn1Cc1ccc(C[C@H]2OC(=O)[C@H](CC(C)C)N(C)C(=O)[C@@H](C)OC(=O)[C@H](CC(C)C)N(C)C(=O)[C@@H](Cc3ccc(Cn4ncnc4CC)cc3)OC(=O)[C@H](CC(C)C)N(C)C(=O)[C@@H](C)OC(=O)[C@H](CC(C)C)N(C)C2=O)cc1 [Example 9-50, (3S,6R,9S,12R,15S,18R,21S,24R)-6,18-bis(4-((5-ethyl-1H-1,2,4-triazol-1-yl)methyl)benzyl)-3,9,15,21-tetraisobutyl-4,10,12,16,22,24-hexamethyl-1,7,13,19-tetraoxa-4,10,16,22-tetraazacyclotetracosan-2,5,8,11,14,17,20,23-octaone]
minimal effective concentration [2]: 1 to 10 µM
minimal effective concentration [3]: 0.001 to 0.01 µM

CC(C)C[C@H]1C(=O)O[C@H](Cc2ccc(Cn3ncnc3C3CCC3)cc2)C(=O)N(C)[C@@H](CC(C)C)C(=O)O[C@H](C)C(=O)N(C)[C@@H](CC(C)C)C(=O)O[C@H](Cc2ccc(Cn3ncnc3C3CCC3)cc2)C(=O)N(C)[C@@H](CC(C)C)C(=O)O[C@H](C)C(=O)N1C [Example 9-54, (3S,6R,9S,12R,15S,18R,21S,24R)-6,18-bis(4-((5-cyclobutyl-1H-1,2,4-triazol-1-yl)methyl)benzyl)-3,9,15,21-tetraisobutyl-4,10,12,16,22,24-hexamethyl-1,7,13,19-tetraoxa-4,10,16,22-tetraazacyclotetracosan-2,5,8,11,14,17,20,23-octaone]
minimal effective concentration [2]: 1 to 10 µM
minimal effective concentration [3]: 0.001 to 0.01 µM

CC(C)C[C@H]1C(=O)O[C@H](Cc2ccc(Cn3ncnc3CC3CC3)cc2)C(=O)N(C)[C@@H](CC(C)C)C(=O)O[C@H](C)C(=O)N(C)[C@@H](CC(C)C)C(=O)O[C@H](Cc2ccc(Cn3ncnc3CC3CC3)cc2)C(=O)N(C)[C@@H](CC(C)C)C(=O)O[C@H](C)C(=O)N1C [Example 9-55, (3S,6R,9S,12R,15S,18R,21S,24R)-6,18-bis(4-((5-(cyclopropylmethyl)-1H-1,2,4-triazol-1-yl)methyl)benzyl)-3,9,15,21-tetraisobutyl-4,10,12,16,22,24-hexamethyl-1,7,13,19-tetraoxa-4,10,16,22-tetraazacyclotetracosan-2,5,8,11,14,17,20,23-octaone]
minimal effective concentration [2]: ≤ 1 µM
minimal effective concentration [3]: 0.0001 to 0.001 µM

CC(C)C[C@H]1C(=O)O[C@H](Cc2ccc(Cn3cccc3C#N)cc2)C(=O)N(C)[C@@H](CC(C)C)C(=O)O[C@H](C)C(=O)N(C)[C@@H](CC(C)C)C(=O)O[C@H](Cc2ccccc2)C(=O)N(C)[C@@H](CC(C)C)C(=O)O[C@H](C)C(=O)N1C [Example 10-13, 1-[[4-[[(2R,5S,8R,11S,14R,17S,20R,23S)-14-benzyl-5,11,17,23-tetraisobutyl-4,8,10,16,20,22-hexamethyl-3,6,9,12,15,18,21,24-octaoxo-1,7,13,19-tetraoxa-4,10,16,22-tetrazacyclotetracos-2-yl]methyl]phenyl]methyl]pyrrole-2-carbonitrile]
minimal effective concentration [2]: 1 to 10 µM
minimal effective concentration [3]: 0.0001 to 0.001 µM

CC(C)C[C@H]1C(=O)O[C@H](Cc2ccc(Cn3c(C#N)ccc3C#N)cc2)C(=O)N(C)[C@@H](CC(C)C)C(=O)O[C@H](C)C(=O)N(C)[C@@H](CC(C)C)C(=O)O[C@H](Cc2ccccc2)C(=O)N(C)[C@@H](CC(C)C)C(=O)O[C@H](C)C(=O)N1C [Example 10-31, 1-(4-(((2R,5S,8R,11S,14R,17S,20R,23S)-14-benzyl-5,11,17,23-tetraisobutyl-4,8,10,16,20,22-hexamethyl-3,6,9,12,15,18,21,24-octaoxo-1,7,13,19-tetraoxa-4,10,16,22-tetraazacyclotetracosan-2-yl)methyl)benzyl)-1H-pyrrole-2,5-dicarbonitrile]
minimal effective concentration [2]: 1 to 10 µM
minimal effective concentration [3]: ≤ 0.0001 µM
